Values quoted from earlier work in US6642259B1, “Immune stimulating dietary supplement and method of use thereof” (Trustees of Tufts College, priority 1999, dated 2003).

Experiments:
[1] = tested on: T cell function; conditions: supplementation of old mice
[2] = tested on: T-cell mediated funtion; conditions: supplementation of the elderly human

**Q.** Which T cell function [1] does the source give for vitamin E here?
**A.** Its T cell function is “increased”.

**Q.** What about the “immunological responses (e.g. T-cell mediated funtion)” value [2] of the same substance?
**A.** Its value is “improved”.
